Reference: patent publication US10820591B2, “Substituted sulfonyl amides for controlling animal pests” (Bayer Aktiengesellschaft, priority 2016, dated 2020)

The compounds below were run on Meloidogyne incognita (assay: Meloidogyne incognita test (sand, lettuce, gall formation)). Details: Meloidogyne incognita, 336 h, 20 ppm, after 14 days; read-out: nematicidal efficacy (formation of galls).
Type: in vivo
Method: Meloidogyne incognita Test [table] To produce a suitable active compound preparation, 1 part by weight of active compound is mixed with the stated amount of solvent and the concentrate is diluted to the desired concentration with water. Vessels are filled with sand, active compound solution, an egg/larvae suspension of the southern root-knot nematode (Meloidogyne incognita) and lettuce seeds. The lettuce seeds germinate and the plants develop. The galls develop on the roots. After 14 days, the nematicidal efficacy in % is determined by the formation of galls. 100% means that no galls were found; 0% means that the number of galls on the treated plants corresponds to the untreated control.

Structure (SMILES)	pest or weed control at 20 ppm [%]
O=C(NS(=O)(=O)c1ccc(Cl)cc1)c1cn(Cc2c(F)cccc2F)cn1 [I-001]	90
COc1ccc(Cl)c(S(=O)(=O)NC(=O)c2cn(Cc3c(F)cccc3F)cn2)c1 [I-002]	90
O=C(NS(=O)(=O)c1ccccc1Cl)c1cn(Cc2c(F)cccc2F)cn1 [I-003]	90
Cc1nc(C(=O)NS(=O)(=O)C(C)C)cn1-c1c(F)cccc1F [I-005]	100
O=C(NS(=O)(=O)c1ccccc1Cl)c1ncn(CCC(F)(F)F)c1I [I-008]	100
CC(C)S(=O)(=O)NC(=O)c1ncn(CCC(F)(F)F)c1Br [I-009]	90
O=C(NS(=O)(=O)c1ccccc1Cl)c1ncn(CCC(F)(F)F)c1Br [I-011]	70
O=C(NS(=O)(=O)c1ccc(Cl)cc1)c1ncn(CCC(F)(F)F)c1Cl [I-012]	100
O=C(NS(=O)(=O)c1ccc(Cl)cc1Cl)c1ncn(CC(F)(F)F)c1Cl [I-013]	70
O=C(NS(=O)(=O)c1ccc(Cl)cc1Cl)c1cn(CC(F)(F)F)cn1 [I-014]	90
O=C(NS(=O)(=O)c1cc(Cl)ccc1Cl)c1ncn(CCC(F)(F)F)c1Cl [I-015]	90
O=C(NS(=O)(=O)c1c(Cl)cccc1Cl)c1ncn(CC(F)(F)F)c1Cl [I-016]	90
Cc1ccccc1S(=O)(=O)NC(=O)c1cn(CCC(F)(F)F)cn1 [I-017]	90
O=C(NS(=O)(=O)c1cccc(C(F)(F)F)c1)c1ncn(CCC(F)(F)F)c1Cl [I-018]	90
O=C(NS(=O)(=O)c1cccc(C(F)(F)F)c1)c1cn(CC(F)(F)F)cn1 [I-019]	90
O=C(NS(=O)(=O)c1cccc(Cl)c1)c1ncn(CCC(F)(F)F)c1Cl [I-020]	90
O=C(NS(=O)(=O)c1ccc(C(F)(F)F)cc1)c1ncn(CCC(F)(F)F)c1Cl [I-021]	90
Cc1ccc(S(=O)(=O)NC(=O)c2cn(CCC(F)(F)F)cn2)cc1 [I-022]	90
Cc1ccc(S(=O)(=O)NC(=O)c2ncn(CC(F)(F)F)c2Cl)cc1 [I-023]	90
Cc1ccc(S(=O)(=O)NC(=O)c2cn(CC(F)(F)F)cn2)cc1 [I-024]	90
O=C(NS(=O)(=O)c1ccc(Cl)cc1)c1cn(CC(F)(F)F)cn1 [I-025]	90

Structure (SMILES)	pest or weed control at 20 ppm [%]
COc1ccc(S(=O)(=O)NC(=O)c2cn(CCC(F)(F)F)cn2)cc1 [I-026]	90
COc1ccc(S(=O)(=O)NC(=O)c2cn(CC(F)(F)F)cn2)cc1 [I-027]	90
O=C(NS(=O)(=O)Cc1ccccc1)c1ncn(CC(F)(F)F)c1Cl [I-029]	70
O=C(NS(=O)(=O)c1ccc2c(c1Cl)OC(F)(F)O2)c1ncn(CCC(F)(F)F)c1Cl [I-030]	90
CC(=O)Oc1ccc(S(=O)(=O)NC(=O)c2ncn(CCC(F)(F)F)c2Cl)cc1 [I-031]	90
O=C(NS(=O)(=O)c1ccc(OC(F)(F)F)cc1)c1ncn(CCC(F)(F)F)c1Cl [I-033]	90
CC(C)Oc1ccc(S(=O)(=O)NC(=O)c2ncn(CCC(F)(F)F)c2Cl)cc1 [I-034]	90
COc1cc(C)c(S(=O)(=O)NC(=O)c2ncn(CCC(F)(F)F)c2Cl)c(C)c1 [I-036]	100
CCCn1cnc(C(=O)NS(=O)(=O)c2ccccc2)c1Cl [I-038]	90
CCCn1cnc(C(=O)NS(=O)(=O)c2ccc(OC)cc2)c1Cl [I-039]	100
CCCn1cnc(C(=O)NS(=O)(=O)c2ccccc2Cl)c1Cl [I-040]	70
CCCn1cnc(C(=O)NS(=O)(=O)c2cccc(Cl)c2)c1Cl [I-041]	100
CCCn1cnc(C(=O)NS(=O)(=O)c2cccc(OC)c2)c1Cl [I-043]	100
CC(C)CCn1cnc(C(=O)NS(=O)(=O)c2ccccc2)c1Cl [I-044]	100
COc1ccc(S(=O)(=O)NC(=O)c2ncn(CCC(C)C)c2Cl)cc1 [I-045]	100
CC(C)CCn1cnc(C(=O)NS(=O)(=O)c2ccc(Cl)cc2)c1Cl [I-046]	100
COc1cccc(S(=O)(=O)NC(=O)c2ncn(CCC(C)C)c2Cl)c1 [I-047]	100
COc1ccccc1S(=O)(=O)NC(=O)c1ncn(CCC(C)C)c1Cl [I-048]	90
O=C(NS(=O)(=O)c1ccccc1)c1ncn(CCCCl)c1Cl [I-049]	90
COc1ccc(S(=O)(=O)NC(=O)c2ncn(CCCCl)c2Cl)cc1 [I-050]	90
O=C(NS(=O)(=O)c1cccc(Cl)c1)c1ncn(CCCCl)c1Cl [I-051]	90

Structure (SMILES)	pest or weed control at 20 ppm [%]
O=C(NS(=O)(=O)c1ccc(Cl)cc1)c1ncn(CCCCl)c1Cl [I-052]	90
COc1cccc(S(=O)(=O)NC(=O)c2ncn(CCCCl)c2Cl)c1 [I-053]	90
O=C(NS(=O)(=O)c1ccccc1)c1ncn(CCOC(F)(F)F)c1Cl [I-054]	90
COc1ccc(S(=O)(=O)NC(=O)c2ncn(CCOC(F)(F)F)c2Cl)cc1 [I-055]	90
O=C(NS(=O)(=O)c1cccc(Cl)c1)c1ncn(CCOC(F)(F)F)c1Cl [I-056]	90
O=C(NS(=O)(=O)c1ccc(Cl)cc1)c1ncn(CCOC(F)(F)F)c1Cl [I-057]	100
COc1cccc(S(=O)(=O)NC(=O)c2ncn(CCOC(F)(F)F)c2Cl)c1 [I-058]	70
O=C(NS(=O)(=O)c1cccc(Cl)c1)c1ncn(C2CC2C(F)(F)F)c1Cl (stereo not shown) [I-061]	90
O=C(NS(=O)(=O)c1ccc(Cl)cc1)c1ncn(C2CC2C(F)(F)F)c1Cl (stereo not shown) [I-062]	90
COc1cccc(S(=O)(=O)NC(=O)c2ncn(C3CC3C(F)(F)F)c2Cl)c1 (stereo not shown) [I-063]	100
COc1ccccc1S(=O)(=O)NC(=O)c1ncn(C2CC2C(F)(F)F)c1Cl (stereo not shown) [I-064]	100
O=C(NS(=O)(=O)c1cccc(Cl)c1)c1ncn(C2CCCC2C(F)(F)F)c1Cl (stereo not shown) [I-065]	90
O=C(NS(=O)(=O)c1ccc(Cl)cc1)c1ncn(C2CCCC2C(F)(F)F)c1Cl (stereo not shown) [I-066]	90
COc1cccc(S(=O)(=O)NC(=O)c2ncn(C3CCCC3C(F)(F)F)c2Cl)c1 (stereo not shown) [I-067]	70
COc1ccccc1S(=O)(=O)NC(=O)c1ncn(C2CCCC2C(F)(F)F)c1Cl (stereo not shown) [I-068]	90
CC(CC(F)(F)F)n1cnc(C(=O)NS(=O)(=O)c2ccccc2)c1Cl (stereo not shown) [I-069]	100
CC(CC(F)(F)F)n1cnc(C(=O)NS(=O)(=O)c2ccccc2Cl)c1Cl (stereo not shown) [I-071]	100
CC(CC(F)(F)F)n1cnc(C(=O)NS(=O)(=O)c2cccc(Cl)c2)c1Cl (stereo not shown) [I-072]	100
COc1cccc(S(=O)(=O)NC(=O)c2ncn(C(C)CC(F)(F)F)c2Cl)c1 (stereo not shown) [I-074]	100
COc1ccccc1S(=O)(=O)NC(=O)c1ncn(C(C)CC(F)(F)F)c1Cl (stereo not shown) [I-075]	70
COc1ccc(S(=O)(=O)NC(=O)c2ncn(CC(F)(F)C(F)(F)F)c2Cl)cc1 [I-076]	90

Structure (SMILES)	pest or weed control at 20 ppm [%]
O=C(NS(=O)(=O)c1ccccc1)c1ncn(CC(F)(F)C(F)(F)F)c1Cl [I-077]	100
O=C(NS(=O)(=O)c1ccc(Cl)cc1)c1ncn(CC(F)(F)C(F)(F)F)c1Cl [I-078]	100
O=C(NS(=O)(=O)c1cccc(Cl)c1)c1ncn(CC(F)(F)C(F)(F)F)c1Cl [I-079]	100
O=C(NS(=O)(=O)c1ccccc1Cl)c1ncn(CC(F)(F)C(F)(F)F)c1Cl [I-080]	90
COc1ccccc1S(=O)(=O)NC(=O)c1ncn(CC(F)(F)C(F)(F)F)c1Cl [I-081]	90
COc1cccc(S(=O)(=O)NC(=O)c2ncn(CC(F)(F)C(F)(F)F)c2Cl)c1 [I-082]	100
O=C(NS(=O)(=O)Cc1ccc(Cl)cc1)c1ncn(CCC(F)(F)F)c1Cl [I-084]	100
O=C(NS(=O)(=O)c1cc(Cl)c(Cl)s1)c1ncn(CCC(F)(F)F)c1Cl [I-086]	70
COc1cc(OC)cc(S(=O)(=O)NC(=O)c2ncn(CCC(F)(F)F)c2Cl)c1 [I-087]	70
CCOc1ccc(S(=O)(=O)NC(=O)c2ncn(CCC(F)(F)F)c2Cl)cc1 [I-088]	90
CSc1ccc(S(=O)(=O)NC(=O)c2ncn(CCC(F)(F)F)c2Cl)cc1 [I-089]	100
CCCCOc1ccc(S(=O)(=O)NC(=O)c2ncn(CCC(F)(F)F)c2Cl)cc1 [I-090]	90
CC(=O)Nc1ccc(S(=O)(=O)NC(=O)c2ncn(CCC(F)(F)F)c2Cl)cc1 [I-091]	90
Cc1ccc(CS(=O)(=O)NC(=O)c2ncn(CCC(F)(F)F)c2Cl)cc1 [I-092]	70
Cc1ccccc1CS(=O)(=O)NC(=O)c1ncn(CCC(F)(F)F)c1Cl [I-093]	100
O=C(NS(=O)(=O)c1ccc(Cl)s1)c1ncn(CCC(F)(F)F)c1Cl [I-094]	90
Cc1noc(C)c1S(=O)(=O)NC(=O)c1ncn(CCC(F)(F)F)c1Cl [I-095]	90
COc1cc(OC)nc(Oc2ccc(S(=O)(=O)NC(=O)c3ncn(CCC(F)(F)F)c3Cl)cc2)n1 [I-096]	90
O=C(NS(=O)(=O)c1cccs1)c1ncn(CCC(F)(F)F)c1Cl [I-097]	90
